Results as given in patent US12036197B2, “Composition for improving bioavailability of drugs” (priority 2019, dated 2024).
One block for each molecule: values may come before it. Where a SMILES comes first, the peptide text is derived from it. Bridges are numbered along the chain shown (N, C = ends). [ ]: non-standard residue; d: D form.

Tests used:
[1] = PK test for small-intestinal administration of ACTH (ELISA); type: in vivo; details: SD rats
Excerpt: (§1) Laboratory Animals: Adult Male SD Rats.
(§2) The plasma was collected and subjected to quick freezing.

[2] = PK test for small-intestinal administration of Bivalirudin (ELISA); type: in vivo; details: SD rats
Excerpt: as §1, §2

[3] = in vivo
Excerpt: as §1, §2

[4] = in vivo; set-up: species or system SD rats; details: male, SD, rat
Excerpt: The composition of the present invention: polyethylene glycol 4000, carbomer, chitosan oligosaccharide, and citric acid, in a weight ratio of 19:6:6:60.
as §1, §2

[5] = PK test for small-intestinal administration of Octreotide (ELISA); type: in vivo; details: SD rats
Excerpt: as §1, §2

[6] = PK test for small-intestinal administration of Oxytocin (ELISA); type: in vivo; details: SD rats
Excerpt: as §1, §2

[7] = PK test for small-intestinal administration of Teduglutide (ELISA); type: in vivo; details: SD rats
Excerpt: The composition of the present invention: Tween 80, Carbomer 910, carboxymethyl Chitosan, and Sodium Tartrate, in a weight ratio of 25:8:8:80.
as §1, §2

[8] = PK test for small-intestinal administration of Teriparatide (ELISA); type: in vivo; details: SD rats
Excerpt: as §1, §2

[9] = PK test for small-intestinal administration of Thymosin alpha-1 (ELISA); type: in vivo; details: SD rats
Excerpt: as §1, §2

[10] = in vivo; details: male, SD, rat
[11] = PK test for small-intestinal administration of Vasopressin (ELISA); type: in vivo; details: SD rats
Excerpt: as §1, §2

[12] = PK test for small-intestinal administration of Gramicidin (ELISA); type: in vivo; details: SD rats
Excerpt: as §1, §2

[13] = PK test for small-intestinal administration of Growth Hormone (ELISA); type: in vivo; details: SD rats
Excerpt: as §1, §2

[14] = PK test for small-intestinal administration of Mecasermin (ELISA); type: in vivo; details: SD rats
Excerpt: as §1, §2

[15] = PK test for small-intestinal administration of rInsulin (ELISA); type: in vivo; details: SD rats; small-intestinal administration at 200 μg/kg without composition
Excerpt: as §1, §2

[16] = small-intestinal administration at 200 μg/kg without composition
[17] = rat, in vivo, ei 200 μg/kg with composition sodium lauryl sulfate, carbomer, chitosan, sodium citrate 20:6.5:6.5:65 (1:5), vs iv 1 μg/kg

blood concentration [1, 16]: lower than the detection limit of ELISA | bioavailability [1, 17]: 1.86%
Molecule: CSCC[C@H](NC(=O)[C@H](CO)NC(=O)[C@H](Cc1ccc(O)cc1)NC(=O)[C@@H](N)CO)C(=O)N[C@@H](CCC(=O)O)C(=O)N[C@@H](Cc1cnc[nH]1)C(=O)N[C@@H](Cc1ccccc1)C(=O)N[C@@H](CCCNC(=N)N)C(=O)N[C@@H](Cc1c[nH]c2ccccc12)C(=O)NCC(=O)N[C@@H](CCCCN)C(=O)N1CCC[C@H]1C(=O)N[C@H](C(=O)NCC(=O)N[C@@H](CCCCN)C(=O)N[C@@H](CCCCN)C(=O)N[C@@H](CCCNC(=N)N)C(=O)N[C@@H](CCCNC(=N)N)C(=O)N1CCC[C@H]1C(=O)N[C@H](C(=O)N[C@@H](CCCCN)C(=O)N[C@H](C(=O)N[C@@H](Cc1ccc(O)cc1)C(=O)N1CCC[C@H]1C(=O)N[C@@H](CC(N)=O)C(=O)NCC(=O)N[C@@H](C)C(=O)N[C@@H](CCC(=O)O)C(=O)N[C@@H](CC(=O)O)C(=O)N[C@@H](CCC(=O)O)C(=O)N[C@@H](CO)C(=O)N[C@@H](C)C(=O)N[C@@H](CCC(=O)O)C(=O)N[C@@H](C)C(=O)N[C@@H](Cc1ccccc1)C(=O)N1CCC[C@H]1C(=O)N[C@@H](CC(C)C)C(=O)N[C@@H](CCC(=O)O)C(=O)N[C@@H](Cc1ccccc1)C(=O)O)C(C)C)C(C)C)C(C)C [ACTH] (H-SYSMEHFRWGKPVGKKRRPVKVYPNGAEDESAEAFPLEF-OH)

Molecule: CC[C@H](C)[C@H](NC(=O)[C@H](CCC(=O)O)NC(=O)[C@H](CCC(=O)O)NC(=O)[C@H](Cc1ccccc1)NC(=O)[C@H](CC(=O)O)NC(=O)CNC(=O)[C@H](CC(N)=O)NC(=O)CNC(=O)CNC(=O)CNC(=O)CNC(=O)[C@@H]1CCCN1C(=O)[C@H](CCCNC(=N)N)NC(=O)[C@@H]1CCCN1C(=O)[C@H](N)Cc1ccccc1)C(=O)N1CCC[C@H]1C(=O)N[C@@H](CCC(=O)O)C(=O)N[C@@H](CCC(=O)O)C(=O)N[C@@H](Cc1ccc(O)cc1)C(=O)N[C@@H](CC(C)C)C(=O)O [Bivalirudin]
blood concentration [2, 16]: lower than the detection limit of ELISA | bioavailability ([2]; rat, in vivo, ei 200 μg/kg with composition sodium lauryl sulfate, carbomer, chitosan, citric acid 19:6.5:7:67 (1:5), vs iv 1 μg/kg): 1.63%

Molecule: CC(C)C[C@H](NC(=O)CNC(=O)[C@H](Cc1ccc(O)cc1)NC(=O)[C@H](CO)NC(=O)[C@H](Cc1c[nH]c2ccccc12)NC(=O)[C@H](Cc1cnc[nH]1)NC(=O)[C@@H]1CCC(=O)N1)C(=O)N[C@@H](CCCNC(=N)N)C(=O)N1CCC[C@H]1C(=O)NCC(N)=O [Gonadorelin]
blood concentration ([3]; SD rats, small-intestinal administration at 200 μg/kg without composition): lower than the detection limit of ELISA | bioavailability ([3]; male, SD, rat, plasma, 200 μg/kg): 1.58%

bioavailability [4]: 1.32%
Molecule: CCNC(=O)[C@@H]1CCCN1C(=O)[C@H](CCCNC(=N)N)NC(=O)[C@H](CC(C)C)NC(=O)[C@@H](CC(C)C)NC(=O)[C@H](Cc1ccc(O)cc1)NC(=O)[C@H](CO)NC(=O)[C@H](Cc1c[nH]c2ccccc12)NC(=O)[C@H](Cc1c[nH]cn1)NC(=O)[C@@H]1CCC(=O)N1 [Leuprolide]

Molecule: C[C@@H](O)[C@@H]1NC(=O)[C@H](CCCCN)NC(=O)[C@@H](Cc2c[nH]c3ccccc23)NC(=O)[C@H](Cc2ccccc2)NC(=O)[C@@H](NC(=O)[C@H](N)Cc2ccccc2)CSSC[C@@H](C(=O)N[C@H](CO)[C@@H](C)O)NC1=O [Octreotide]
blood concentration [5, 16]: lower than the detection limit of ELISA | bioavailability ([5]; male, rat, plasma, ei 200 μg/kg with composition sodium lauryl sulfate, carbomer, chitosan, sodium citrate 21:7:6:69 (1:5), vs iv 1 μg/kg): 1.71%

blood concentration [6, 16]: lower than the detection limit of ELISA | bioavailability ([6]; male, rat, plasma, ei 200 μg/kg with composition sodium lauryl sulfate, carbomer 934, water-soluble chitosan, disodium edetate 24:7.5:7:75 (1:5), vs iv 1 μg/kg): 2.58%
Molecule: CC[C@H](C)[C@@H]1NC(=O)[C@H](Cc2ccc(O)cc2)NC(=O)[C@@H](N)CSSC[C@@H](C(=O)N2CCC[C@H]2C(=O)N[C@@H](CC(C)C)C(=O)NCC(N)=O)NC(=O)[C@H](CC(N)=O)NC(=O)[C@H](CCC(N)=O)NC1=O [Oxytocin]

blood concentration [7, 16]: lower than the detection limit of ELISA | bioavailability ([7]; male, rat, plasma, ei 200 μg/kg with composition Tween 80, Carbomer 910, carboxymethyl Chitosan, Sodium Tartrate 25:8:8:80 (1:5), vs iv 1 μg/kg): 2.13%
Molecule: CC[C@H](C)[C@H](NC(=O)[C@H](Cc1ccccc1)NC(=O)[C@H](CC(=O)O)NC(=O)[C@H](CCCNC(=N)N)NC(=O)[C@H](C)NC(=O)[C@H](C)NC(=O)[C@H](CC(C)C)NC(=O)[C@H](CC(N)=O)NC(=O)[C@H](CC(=O)O)NC(=O)[C@H](CC(C)C)NC(=O)[C@@H](NC(=O)[C@@H](NC(=O)[C@H](CC(N)=O)NC(=O)[C@H](CCSC)NC(=O)[C@H](CCC(=O)O)NC(=O)[C@H](CC(=O)O)NC(=O)[C@H](CO)NC(=O)[C@H](Cc1ccccc1)NC(=O)[C@H](CO)NC(=O)CNC(=O)[C@H](CC(=O)O)NC(=O)CNC(=O)[C@@H](N)Cc1c[nH]cn1)[C@@H](C)O)[C@@H](C)CC)C(=O)N[C@@H](CC(N)=O)C(=O)N[C@@H](Cc1c[nH]c2ccccc12)C(=O)N[C@@H](CC(C)C)C(=O)N[C@H](C(=O)N[C@@H](CCC(N)=O)C(=O)N[C@H](C(=O)N[C@@H](CCCCN)C(=O)N[C@H](C(=O)N[C@H](C(=O)N[C@@H](CC(=O)O)C(=O)O)[C@@H](C)O)[C@@H](C)CC)[C@@H](C)O)[C@@H](C)CC [Teduglutide]

blood concentration [8, 16]: lower than the detection limit of ELISA | bioavailability ([8]; male, rat, plasma, ei 200 μg/kg with composition sodium lauryl sulfate, carbomer, chitosan, sodium citrate 20:6.5:6.5:65 (1:5), vs iv 1 μg/kg): 2.08%
Molecule: CC[C@H](C)[C@H](NC(=O)[C@H](CCC(=O)O)NC(=O)[C@H](CO)NC(=O)[C@@H](NC(=O)[C@@H](N)CO)C(C)C)C(=O)N[C@@H](CCC(N)=O)C(=O)N[C@@H](CC(C)C)C(=O)N[C@@H](CCSC)C(=O)N[C@@H](Cc1cnc[nH]1)C(=O)N[C@@H](CC(N)=O)C(=O)N[C@@H](CC(C)C)C(=O)NCC(=O)N[C@@H](CCCCN)C(=O)N[C@@H](Cc1cnc[nH]1)C(=O)N[C@@H](CC(C)C)C(=O)N[C@@H](CC(N)=O)C(=O)N[C@@H](CO)C(=O)N[C@@H](CCSC)C(=O)N[C@@H](CCC(=O)O)C(=O)N[C@@H](CCCN=C(N)N)C(=O)N[C@H](C(=O)N[C@@H](CCC(=O)O)C(=O)N[C@@H](Cc1c[nH]c2ccccc12)C(=O)N[C@@H](CC(C)C)C(=O)N[C@@H](CCCN=C(N)N)C(=O)N[C@@H](CCCCN)C(=O)N[C@@H](CCCCN)C(=O)N[C@@H](CC(C)C)C(=O)N[C@@H](CCC(N)=O)C(=O)N[C@@H](CC(=O)O)C(=O)N[C@H](C(=O)N[C@@H](Cc1cnc[nH]1)C(=O)N[C@@H](CC(N)=O)C(=O)N[C@@H](Cc1ccccc1)C(=O)O)C(C)C)C(C)C [Teriparatide]

blood concentration [9, 16]: lower than the detection limit of ELISA | bioavailability [9, 17]: 0.65%
Molecule: CC[C@H](C)[C@H](NC(=O)[C@H](CCC(=O)O)NC(=O)[C@H](CO)NC(=O)[C@H](CO)NC(=O)[C@@H](NC(=O)[C@H](CC(=O)O)NC(=O)[C@@H](NC(=O)[C@H](C)NC(=O)[C@H](C)NC(=O)[C@H](CC(=O)O)NC(=O)[C@H](CO)NC(C)=O)C(C)C)[C@@H](C)O)C(=O)N[C@H](C(=O)N[C@H](C(=O)N[C@@H](CCCCN)C(=O)N[C@@H](CC(=O)O)C(=O)N[C@@H](CC(C)C)C(=O)N[C@@H](CCCCN)C(=O)N[C@@H](CCC(=O)O)C(=O)N[C@@H](CCCCN)C(=O)N[C@@H](CCCCN)C(=O)N[C@@H](CCC(=O)O)C(=O)N[C@H](C(=O)N[C@H](C(=O)N[C@@H](CCC(=O)O)C(=O)N[C@@H](CCC(=O)O)C(=O)N[C@@H](C)C(=O)N[C@@H](CCC(=O)O)C(=O)N[C@@H](CC(N)=O)C(=O)O)C(C)C)C(C)C)[C@@H](C)O)[C@@H](C)O [Thymosin alpha-1] (Ac-SDAAVDTSSEITTKDLKEKKEVVEEAEN-OH)

bioavailability [10]: 1.69%
Molecule: CC(C)[C@@H]1NC(=O)[C@H](CCCCN)NC(=O)[C@@H](Cc2c[nH]c3ccccc23)NC(=O)[C@H](Cc2ccc(O)cc2)NC(=O)[C@@H](NC(=O)[C@H](N)Cc2ccccc2)CSSC[C@@H](C(=O)N[C@@H](Cc2c[nH]c3ccccc23)C(N)=O)NC1=O [Vapreotide] (H-[dF]CY[dW]KVCW-NH2; disulfide 2-7)

Molecule: NC(=O)CC[C@@H]1NC(=O)[C@H](Cc2ccccc2)NC(=O)[C@H](Cc2ccc(O)cc2)NC(=O)[C@@H](N)CSSC[C@@H](C(=O)N2CCC[C@H]2C(=O)N[C@@H](CCCN=C(N)N)C(=O)NCC(N)=O)NC(=O)[C@H](CC(N)=O)NC1=O [Vasopressin]
blood concentration [11, 16]: lower than the detection limit of ELISA | bioavailability ([11]; male, rat, plasma, ei 200 μg/kg with composition sodium lauryl sulfate, carbomer, chitosan, sodium citrate 23:8:7.5:80 (1:5), vs iv 1 μg/kg): 1.81%

Molecule: Gramicidin D
bioavailability of small-intestinal administration ([12]; ei 200 μg/kg with composition sodium lauryl sulfate, carbomer, chitosan, sodium citrate 19:6:6:60 (1:5), vs iv 1 μg/kg): 1.18% | blood concentration [12, 16]: lower than the detection limit of ELISA

Molecule: Growth Hormone: Growth Hormone (rhGH)
bioavailability of small-intestinal administration ([13]; ei 200 μg/kg with composition sodium lauryl sulfate, carbomer, chitosan, sodium citrate 20:6.5:6.5:65 (1:5), vs iv 1 μg/kg): 0.32% | blood concentration [13, 16]: lower than the detection limit of ELISA

Molecule: Mecasermin
bioavailability of small-intestinal administration ([14]; ei 200 μg/kg with composition sodium lauryl sulfate, carbomer, chitosan, sodium citrate 21:6:7:65 (1:5), vs iv 1 μg/kg): 1.38% | blood concentration [14, 16]: lower than the detection limit of ELISA

Molecule: rInsulin: Recombinant Insulin (rInsulin)
blood concentration [15]: lower than the detection limit of ELISA
